Where a name gives a salt, the structure may show the parent alone.
Key:
[1] = In vitro release of leuprolide in PBS at pH 7.4 at 37° C. (HPLC); format: physicochemical; conditions: for release of leuprolide completed: Example 5, FIG. 3, PLA 16,000 Dalton 60% in NMP, about 12% leuprolide, gamma 25 kGy
Method: The product is supplied in 2 separate syringes with the leuprolide acetate in one syringe and the polymer solution in the other. The two are mixed immediately prior to injection. The polymer solution contains a 50% 8515PLGA polymer solution in NMP. The molecular weight of the polymer is about 20k dalton. […] The leuprolide mesylate was prepared from leuprolide acetate by ion exchange lyophilization process and contains a small amount of acetate. The formulation was mixed and stored in a single syringe. Another formulation was made with LAMS using a PLA polymer with a molecular weight of 15k dalton (PLA-1) and a polydispersity index (PDI) of 1.8. This formulation was also mixed and stored in a single syringe. […] The release sample was taken at predefined time points and analyzed by HPLC.
The in vitro release of leuprolide was tested from these two formulations. The in vitro release test was performed in PBS at pH 7.4 at 37° C. and the release of leuprolide over time was measured by HPLC. Briefly, an aliquot of the formulation (about 100 mg) was injected into 3 mL phosphate buffer saline solution at pH 7.4 with 0.1% sodium azide at 37° C. The receiving fluid was replaced at predefined time points with fresh buffer solution, and the removed buffer solution diluted 2-fold with phosphate buffer at pH 7.4 was analyzed for drug concentration by HPLC. The amount released at each time point was calculated.
The in vitro release of leuprolide was tested from several kits of Eligard® 45 mg. These kits contain 1 syringe with leuprolide acetate (LAAc) and one syringe of polymer solution (PLGA8515 in NMP). PLGA8515 used here was prepared with hexanediol as an initiator and has a molar ratio of DL-lactide to Glycolide=85:15. The PLGA8515 polymer has one hydroxyl end group at both ends of the polymer chain. The two syringes are connected and the contents are mixed immediately prior to injection.
Formulations were made with leuprolide mesylate (LAMS(1.6)) in order to achieve the delivery of leuprolide for a period of 3 months. The leuprolide mesylate was prepared from leuprolide formate by salt exchange lyophilization process and contains a small amount of formic acid. […] The removed release media was analyzed by HPLC for leuprolide content.
The in vitro release of leuprolide was tested from these two formulations. The in vitro release test was performed in PBS at pH 7.4 at 37° C. and the release of leuprolide was measured by HPLC over time. […]
Formulations designed for a release duration of one month were made with a 50:50PLGA polymer (MW 50k, PDI 4.0) in NMP using LAMS with a methane sulfonic acid to leuprolide ratio of 1.6:1 and 2.0:1. The formulations were stored at 25° C. and the peptide purity and polymer molecular weight were measured over time. […]

[2] = for molecular weight of PLGA compared with blank control: both 4° C. and RT, after 12 months
Method: Poly(DL-lactide-co-glycolide) (PLGA) of an 85/15 ratio of lactide to glycolide (DLPLG85/15, IV: 0.28) with a lauryl ester end group was dissolved in N-methyl-2-pyrrolidone (NMP) to give a 50% solution by weight. […] The injectable compositions were filled into 1.2 mL polypropylene syringes with luer-lock tips. Then the pre-filled syringes were sealed using luer-lock caps. The capped syringes were packaged in a container and sealed in a plastic bag under vacuum and then stored at 4° C. and room temperature (˜22° C.) for up to 18 months. The injectable composition was sampled at 24 h, 1, 2, 3, 6, 12, and 18-month time points. Purity of leuprolide in the sample was determined by HPLC. Molecular weight of the polymer was determined by gel permeation chromatography (GPC) using polystyrene standards with known molecular weights.

| release of leuprolide completed [1] [days] | leuprolide released ([1]; Example 6, FIG. 4, polymer syringe from the Eligard 45 mg kit, at 112 days) | molecular weight of PLGA compared with blank control [2] | in vitro release lasts longer versus leuprolide mesylate ([1]; Example 5, same PLA/NMP solution) | molecular weight of PLGA decreased, comparing to blank control ([2]; 4° C., after 6 months) | Compound |
| --- | --- | --- | --- | --- | --- |
| ~180 | > 99 | the same as that of the blank control |  |  | leuprolide mesylate |
| ~240 |  |  | more than 60 days | more than 10% | CCNC(=O)[C@@H]1CCCN1C(=O)[C@H](CCCNC(=N)N)NC(=O)[C@H](CC(C)C)NC(=O)[C@@H](CC(C)C)NC(=O)[C@H](Cc1ccc(O)cc1)NC(=O)[C@H](CO)NC(=O)[C@H](Cc1c[nH]c2ccccc12)NC(=O)[C@H](Cc1c[nH]cn1)NC(=O)[C@@H]1CCC(=O)N1 [leuprolide acetate, reference compound] |
|  |  | the same as that of the blank control |  |  | CCNC(=O)[C@@H]1CCCN1C(=O)[C@H](CCCNC(=N)N)NC(=O)[C@H](CC(C)C)NC(=O)[C@@H](CC(C)C)NC(=O)[C@H](Cc1ccc(O)cc1)NC(=O)[C@H](CO)NC(=O)[C@H](Cc1c[nH]c2ccccc12)NC(=O)[C@H](Cc1c[nH]cn1)NC(=O)[C@@H]1CCC(=O)N1 [leuprolide hydrochloride] |

— patent US12133878B2, “Pharmaceutical compositions having a selected release duration” (Foresee Pharmaceuticals Co., Ltd., priority 2017, dated 2024)
